Assay results as given in patent publication US8609852B2, “Thiazolyl mGluR5 antagonists and methods for their use” (Merck Sharp & Dohme Corp., priority 2004, dated 2013).
Where a name gives a salt, the structure may show the parent alone.

Assays:
[1] = target: metabotropic glutamate receptor subtype 5 (Rattus norvegicus (Rat), UniProt P31424); assay: [3H]-mGluR5 Antagonist Binding to Rodent Brain Membranes
Procedure: In accordance with Anderson J J, Rao S P, Rowe B, Giracello D R, Holtz G, Chapman D F, Tehrani L, Bradbury M J, Cosford N D, Varney M A, [^3H]Methoxymethyl-3-[(2-methyl-1,3-thiazol-4-yl)ethynyl]pyridine binding to metabotropic glutamate receptor subtype 5 in rodent brain: in vitro and in vivo characterization. J Pharmacol Exp Ther. 2002 December; 303 (3):1044-51, membranes were prepared (as described in Ransom R W and Stec N L (1988) Cooperative modulation of [^3H]MK-801 binding to the N-methyl-D-aspartate receptor-ion channel complex by L-glutamate, glycine, and polyamines. J Neurochem 51:830-836) using whole rat brain, or mGlu5^+/+ or mGlu5^−/− whole mouse brain.
Binding assays were performed as described in Schaffhauser H, Richards J G, Cartmell J, Chaboz S, Kemp J A, Klingelschmidt A, Messer J, Stadler H, Woltering T and Mutel V (1998) In vitro binding characteristics of a new selective group II metabotropic glutamate receptor radioligand, [^3H]LY354740, in rat brain. Mol Pharmacol 53:228-233) at room temperature with slight modifications. Briefly, membranes were thawed and washed once with assay buffer (50 mM HEPES, 2 mM MgCl2, pH 7.4), followed by centrifugation at 40,000×g for 20 min. The pellet was resuspended in assay buffer and briefly homogenized with a Polytron.
For protein linearity experiments, increasing concentrations of membrane protein were added to 96-well plates in triplicate and binding was initiated by addition of 20 nM [^3H]methoxymethyl-3-[(2-methyl-1,3-thiazol-4-yl)ethynyl]pyridine. The assay was incubated for 2 h and non-specific binding was determined using 10 μM MPEP. The binding was terminated by rapid filtration through glass-fiber filters (Unifilter-96 GF/B plate, Packard) using a 96-well plate Brandel cell harvester. Following addition of scintillant, the radioactivity was determined by liquid scintillation spectrometry. Protein measurements were performed by BioRad-DC Protein assay using bovine serum albumin as the standard.
Saturation binding experiments were performed in triplicate with increasing concentrations of [^3H]methoxymethyl-3-[(2-methyl-1,3-thiazol-4-yl)ethynyl]pyridine (1 pM to 100 nM). The time course of association was measured by the addition of 10 nM [^3H]methoxymethyl-3-[(2-methyl-1,3-thiazol-4-yl)ethynyl]pyridine to the membranes at different time points (0-240 min), followed by filtration. Dissociation was measured by the addition of 100 μM unlabeled methoxymethyl-3-[(2-methyl-1,3-thiazol-4-yl)ethynyl]pyridine at different time points to membranes previously incubated for 3 h with 10 nM [^3H]methoxymethyl-3-[(2-methyl-1,3-thiazol-4-yl)ethynyl]pyridine. For competition experiments, 100 μg membrane protein and 10 nM [^3H]methoxymethyl-3-[(2-methyl-1,3-thiazol-4-yl)ethynyl]pyridine was added to wells containing increasing concentration of the test compound in duplicate (methoxymethyl-3-[(2-methyl-1,3-thiazol-4-yl)ethynyl]pyridine or MPEP). [^3H]-3-Methoxy-5-(pyridin-2-ylethynyl)pyridine may also be used as the radioligand in the procedure described above. (See, Cosford, N. D. P.; Roppe, J.; Tehrani, L.; Seiders, T. J.; Schweiger, E. J. et al. [3H]-Methoxymethyl-MTEP and [3H]-methoxy-PEPy): Potent and selective radioligands for the Metabotropic Glutamate Subtype 5 (mGlu5) Receptor. Bioorg. Med. Chem. Lett. 2003, 13, 351-354.)

hmGluR5a receptor = hmGluR5a receptor (Homo sapiens (Human), UniProt P41594); assay: Calcium Flux Assay; type: cell-based; settings: hmGluR5a/L38-20 cells, glutamate-evoked [Ca2+]i
Sequence of hmGluR5a receptor (P41594 other isoform, or with tags, fused parts or gaps): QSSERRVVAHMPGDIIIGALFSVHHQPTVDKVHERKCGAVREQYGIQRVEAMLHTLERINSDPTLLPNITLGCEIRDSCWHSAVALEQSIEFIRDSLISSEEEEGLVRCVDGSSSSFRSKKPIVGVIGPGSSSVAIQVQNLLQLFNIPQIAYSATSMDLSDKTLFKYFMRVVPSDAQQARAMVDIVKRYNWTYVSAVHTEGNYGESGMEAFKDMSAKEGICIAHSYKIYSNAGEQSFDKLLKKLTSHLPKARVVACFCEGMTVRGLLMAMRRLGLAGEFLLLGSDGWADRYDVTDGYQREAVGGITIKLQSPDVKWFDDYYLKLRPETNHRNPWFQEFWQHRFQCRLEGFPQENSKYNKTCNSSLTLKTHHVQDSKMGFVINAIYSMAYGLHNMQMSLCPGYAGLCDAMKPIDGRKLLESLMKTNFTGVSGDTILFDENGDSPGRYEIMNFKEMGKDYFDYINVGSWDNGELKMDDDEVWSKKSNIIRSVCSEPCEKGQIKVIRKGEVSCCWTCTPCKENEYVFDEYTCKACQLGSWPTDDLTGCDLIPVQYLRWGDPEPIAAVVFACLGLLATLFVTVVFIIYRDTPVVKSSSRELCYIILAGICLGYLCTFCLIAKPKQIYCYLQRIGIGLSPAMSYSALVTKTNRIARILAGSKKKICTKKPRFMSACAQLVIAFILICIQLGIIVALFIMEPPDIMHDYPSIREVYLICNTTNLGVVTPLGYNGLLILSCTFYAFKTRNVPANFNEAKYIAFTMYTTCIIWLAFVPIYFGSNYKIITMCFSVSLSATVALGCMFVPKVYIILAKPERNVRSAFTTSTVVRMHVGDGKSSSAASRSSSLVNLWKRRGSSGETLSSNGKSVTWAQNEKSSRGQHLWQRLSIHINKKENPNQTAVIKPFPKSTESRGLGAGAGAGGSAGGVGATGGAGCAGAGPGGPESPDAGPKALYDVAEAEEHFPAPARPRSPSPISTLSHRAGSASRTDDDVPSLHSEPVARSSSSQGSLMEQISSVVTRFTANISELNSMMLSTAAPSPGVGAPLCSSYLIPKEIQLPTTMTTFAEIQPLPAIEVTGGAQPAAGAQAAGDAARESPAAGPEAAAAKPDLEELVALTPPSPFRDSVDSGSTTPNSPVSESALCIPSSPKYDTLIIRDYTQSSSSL
Procedure: The activity of compounds was examined against the hmGluR5a receptor stably expressed in mouse fibroblast Ltk− cells (the hmGluR5a/L38-20 cell line). See generally Daggett et al., Neuropharmacology 34:871-886 (1995). Receptor activity was detected by changes in intracellular calcium ([Ca^2+]i) measured using the fluorescent calcium-sensitive dye, fura-2. hmGluR5a/L38-20 cells were plated onto 96-well plates, and loaded with 3 µM fura-2 for 1 h. Unincorporated dye was washed from the cells, and the cell plate was transferred to a custom-built 96-channel fluorimeter (SIBIA-SAIC, La Jolla, Calif.) which is integrated into a fully automated plate handling and liquid delivery system. Cells were excited at 350 and 385 nm with a xenon source combined with optical filters. Emitted light was collected from the sample through a dichroic mirror and a 510 nm interference filter and directed into a cooled CCD camera (Princeton Instruments). Image pairs were captured approximately every 1 s, and ratio images were generated after background subtraction. After a basal reading of 20 s, an EC80 concentration of glutamate ([…]) was added to the well, and the response evaluated for another 60 s. The glutamate-evoked increase in [Ca^2+]i in the presence of the screening compound was compared to the response of glutamate alone (the positive control).

Sequence of metabotropic glutamate receptor subtype 5 (P31424 21-1203): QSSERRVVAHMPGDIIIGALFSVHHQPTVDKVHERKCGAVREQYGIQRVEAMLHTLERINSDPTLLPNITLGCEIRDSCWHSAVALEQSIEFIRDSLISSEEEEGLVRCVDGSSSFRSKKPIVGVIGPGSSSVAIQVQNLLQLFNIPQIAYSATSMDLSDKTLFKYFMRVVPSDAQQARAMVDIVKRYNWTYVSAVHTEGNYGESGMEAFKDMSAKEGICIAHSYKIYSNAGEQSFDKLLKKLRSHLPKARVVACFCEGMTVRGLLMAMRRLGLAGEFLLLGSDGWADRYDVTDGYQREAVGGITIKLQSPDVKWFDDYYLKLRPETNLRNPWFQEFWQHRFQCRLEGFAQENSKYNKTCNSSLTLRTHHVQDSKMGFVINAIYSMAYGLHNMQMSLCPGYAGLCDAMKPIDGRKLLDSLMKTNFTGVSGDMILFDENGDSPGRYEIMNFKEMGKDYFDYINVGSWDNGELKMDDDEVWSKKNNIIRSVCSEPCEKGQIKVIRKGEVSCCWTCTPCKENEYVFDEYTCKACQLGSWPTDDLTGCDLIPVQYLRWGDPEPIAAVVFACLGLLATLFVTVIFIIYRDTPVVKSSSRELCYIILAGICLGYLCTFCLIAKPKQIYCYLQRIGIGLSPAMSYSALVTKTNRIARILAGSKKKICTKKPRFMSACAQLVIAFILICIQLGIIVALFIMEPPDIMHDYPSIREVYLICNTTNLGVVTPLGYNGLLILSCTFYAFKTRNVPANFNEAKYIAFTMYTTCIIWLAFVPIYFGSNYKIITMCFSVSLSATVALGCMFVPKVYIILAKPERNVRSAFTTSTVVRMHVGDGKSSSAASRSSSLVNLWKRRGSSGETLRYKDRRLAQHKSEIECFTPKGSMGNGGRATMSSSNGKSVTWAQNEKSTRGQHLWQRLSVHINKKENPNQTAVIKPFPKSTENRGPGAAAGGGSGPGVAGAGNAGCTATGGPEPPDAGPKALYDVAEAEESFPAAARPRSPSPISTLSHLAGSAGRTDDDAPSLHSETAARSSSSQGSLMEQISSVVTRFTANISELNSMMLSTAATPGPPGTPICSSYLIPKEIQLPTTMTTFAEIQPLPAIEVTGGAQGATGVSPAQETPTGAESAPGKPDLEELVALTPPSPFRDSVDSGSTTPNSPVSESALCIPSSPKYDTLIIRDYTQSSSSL

Ki [1] [nM]	IC50 (hmGluR5a receptor) [nM]	SMILES
26	2	Cc1nc(C#Cc2cnc(NC3CCCC3)nc2)cs1 [Example 102]
7	5	Cc1nc(C#Cc2ccc(NC(C)(C)C)nc2)cs1 [Example 72]
8.6	0.4	Cc1nc(C#Cc2cnc(-c3cccc(C)c3C)nc2)cs1 [Example 16, 2-(2,3-dimethylphenyl)-5-[(2-methyl-1,3-thiazol-4-yl)ethynyl]pyrimidine]
2.6	1	Cc1nc(C#Cc2cnc(-c3ccccc3Cl)nc2)cs1 [Example 15, 2-(2-chlorophenyl)-5-[(2-methyl-1,3-thiazol-4-yl)ethynyl]pyrimidine]
5.5	9	Cc1nc(C#Cc2ccc(-c3ccc(F)c(C)c3)nc2)cs1 [Example 49]
1.5	8	Cc1ccc(F)c(-c2ccc(C#Cc3csc(C)n3)cn2)c1 [Example 54]
9	8	COc1cccc(-c2ccc(C#Cc3csc(C)n3)cn2)c1F [Example 51]
7	11	Cc1nc(C#Cc2ccc(-c3ccc(F)c(F)c3)nc2)cs1 [Example 45]
3	3	Cc1cncc(C#Cc2csc(C)n2)c1 [Example 80]
3	11	Cc1nc(C#Cc2cnc(N3CCCCCC3)nc2)cs1 [Example 93]
4.5	5	COCc1ccccc1-c1ccc(C#Cc2csc(C)n2)cn1 [Example 71]
1	1	Cc1nc(C#Cc2cnc(NC(C)(C)C)nc2)cs1 [Example 105]
7	19	Cc1nc(C#Cc2ccc(-c3ccc(F)cc3F)nc2)cs1 [Example 33]
4	6	Cc1nc(C#Cc2ccc(-c3cccc(C)c3C)nc2)cs1 [Example 63]
1.2	4.4	COc1ccc(F)cc1-c1ccc(C#Cc2csc(C)n2)cn1 [Example 6, 2-(5-fluoro-2-methoxyphenyl)-5-[(2-methyl-1,3-thiazol-4-yl)ethynyl]pyridine]
2	11	Cc1nc(C#Cc2ccc(-c3ccc(F)cc3)nc2)cs1 [Example 46]
5	5	Cc1nc(C#Cc2cnc(N3CCCCC3C)nc2)cs1 (centres unmarked) [Example 96]
5	17	Cc1nc(C#Cc2ccc(-c3cccc4ncccc34)nc2)cs1 [Example 35]
2.7	0.9	Cc1nc(C#Cc2ccc(-c3cccc(F)c3)nc2)cs1 [Example 3, 2-(3-fluorophenyl)-5-[(2-methyl-1,3-thiazol-4-yl)ethynyl]pyridine]
4	2	Cc1nc(C#Cc2ccc(N3CCC(F)CC3)nc2)cs1 [Example 88]
13	3	Cc1nc(C#Cc2ccc(-c3cccc(C(F)(F)F)c3)nc2)cs1 [Example 77]
11	6	CC[C@H](C)Nc1ccc(C#Cc2csc(C)n2)cn1 [Example 62]
0.7	1.1	Cc1nc(C#Cc2ccc(-c3ccccc3Cl)nc2)cs1 [Example 7, 2-(2-chlorophenyl)-5-[(2-methyl-1,3-thiazol-4-yl)ethynyl]pyridine]

Ki [1] [nM]	IC50 (hmGluR5a receptor) [nM]	SMILES
12.5	9	Cc1nc(C#Cc2ccc(-c3cc(C#N)ccc3F)nc2)cs1 [Example 48]
9	12	Cc1nc(C#Cc2ccc(N3CCSCC3)nc2)cs1 [Example 40]
8	13	Cc1ccc(C)c(-c2ccc(C#Cc3csc(C)n3)cn2)c1 [Example 38]
7.5	7	Cc1nc(C#Cc2ccc(N3CCCCCC3)nc2)cs1 [Example 57]
4.8	1	Cc1nc(C#Cc2cnc(C3CCCCC3)nc2)cs1 [Example 32, 2-cyclohexyl-5-[(2-methyl-1,3-thiazol-4-yl)ethynyl]pyrimidine]
7	5	Cc1nc(C#Cc2cncc(CCc3ccccc3)c2)cs1 [Example 67]
6	–	Cc1nc(C#Cc2cnc(-c3ccccc3F)nc2)cs1 [Example 106]
7.5	4	Cc1nc(C#Cc2ccc(N3CC4CCC3C4)nc2)cs1 (centres unmarked) [Example 74]
0.6	0.6	Cc1nc(C#Cc2cnc(-c3ccccc3C)nc2)cs1 [Example 13, 2-(2-methylphenyl)-5-[(2-methyl-1,3-thiazol-4-yl)ethynyl]pyrimidine]
19	11	COc1ccc(C)cc1-c1ccc(C#Cc2csc(C)n2)cn1 [Example 47]
2.8	1.8	Cc1nc(C#Cc2ccc(N3CCCCC3)nc2)cs1 [Example 19, 5-[(2-methyl-1,3-thiazol-4-yl)ethynyl]-2-piperidin-1-ylpyridine]
9	16	Cc1nc(C#Cc2cnc(N3CCCCC3CO)nc2)cs1 (centres unmarked) [Example 107]
2	4	Cc1nc(C#Cc2ccc(C3CC4CCC3C4)nc2)cs1 (centres unmarked) [Example 73]
6	3	Cc1nc(C#Cc2ccc(N3CCC(C)CC3)nc2)cs1 [Example 81]
1.1	0.6	Cc1nc(C#Cc2ccc(-c3cc(F)ccc3C)nc2)cs1 [Example 12, 2-(5-fluoro-2-methylphenyl)-5-[(2-methyl-1,3-thiazol-4-yl)ethynyl]pyridinium trifluoroacetate]
2	1.6	CCOc1ccccc1-c1ccc(C#Cc2csc(C)n2)cn1 [Example 89]
1.6	1.6	Cc1nc(C#Cc2cnc(N3CCCC(C)C3)nc2)cs1 (centres unmarked) [Example 103]
–	1.1	Cc1nc(C#Cc2ccc(-c3ccc(F)cc3C)nc2)cs1 [Example 9, 2-(4-fluoro-2-methylphenyl)-5-[(2-methyl-1,3-thiazol-4-yl)ethynyl]pyridinium trifluoroacetate]
–	1.3	COc1cc(F)ccc1-c1ccc(C#Cc2csc(C)n2)cn1 [Example 11, 2-(4-fluoro-2-methoxyphenyl)-5-[(2-methyl-1,3-thiazol-4-yl)ethynyl]pyridinium trifluoroacetate]
–	2.2	Cc1nc(C#Cc2ccc(-c3ccccc3C#N)nc2)cs1 [Example 4, 2-{5-[(2-methyl-1,3-thiazol-4-yl)ethynyl]pyridin-2-yl}benzonitrile]
–	2	Cc1nc(C#Cc2ccc(-c3cccc(-n4cccn4)c3)nc2)cs1 [Example 87]
–	0.7	COc1c(F)cc(F)cc1-c1ccc(C#Cc2csc(C)n2)cn1 [Example 10, 2-(3,5-difluoro-2-methoxyphenyl)-5-[(2-methyl-1,3-thiazol-4-yl)ethynyl]pyridinium trifluoroacetate]

SMILES	Ki [1] [nM]	IC50 (hmGluR5a receptor) [nM]
Cc1nc(C#Cc2ccc(OC(C)(C)C)nc2)cs1 [Example 27, 2-tert-butoxy-5-[(2-methyl-1,3-thiazol-4-yl)ethynyl]pyridine]	1	1.4
